# Results from the Kinase Knowledgebase extract (Sharma et al. 2016).
# Target: PIK3CD (Human) (UniProt O00329)
# Test: Assessment of PIK3CD Kinase Activity
# Sequence of PIK3CD (Human) (O00329 whole entry, looked up): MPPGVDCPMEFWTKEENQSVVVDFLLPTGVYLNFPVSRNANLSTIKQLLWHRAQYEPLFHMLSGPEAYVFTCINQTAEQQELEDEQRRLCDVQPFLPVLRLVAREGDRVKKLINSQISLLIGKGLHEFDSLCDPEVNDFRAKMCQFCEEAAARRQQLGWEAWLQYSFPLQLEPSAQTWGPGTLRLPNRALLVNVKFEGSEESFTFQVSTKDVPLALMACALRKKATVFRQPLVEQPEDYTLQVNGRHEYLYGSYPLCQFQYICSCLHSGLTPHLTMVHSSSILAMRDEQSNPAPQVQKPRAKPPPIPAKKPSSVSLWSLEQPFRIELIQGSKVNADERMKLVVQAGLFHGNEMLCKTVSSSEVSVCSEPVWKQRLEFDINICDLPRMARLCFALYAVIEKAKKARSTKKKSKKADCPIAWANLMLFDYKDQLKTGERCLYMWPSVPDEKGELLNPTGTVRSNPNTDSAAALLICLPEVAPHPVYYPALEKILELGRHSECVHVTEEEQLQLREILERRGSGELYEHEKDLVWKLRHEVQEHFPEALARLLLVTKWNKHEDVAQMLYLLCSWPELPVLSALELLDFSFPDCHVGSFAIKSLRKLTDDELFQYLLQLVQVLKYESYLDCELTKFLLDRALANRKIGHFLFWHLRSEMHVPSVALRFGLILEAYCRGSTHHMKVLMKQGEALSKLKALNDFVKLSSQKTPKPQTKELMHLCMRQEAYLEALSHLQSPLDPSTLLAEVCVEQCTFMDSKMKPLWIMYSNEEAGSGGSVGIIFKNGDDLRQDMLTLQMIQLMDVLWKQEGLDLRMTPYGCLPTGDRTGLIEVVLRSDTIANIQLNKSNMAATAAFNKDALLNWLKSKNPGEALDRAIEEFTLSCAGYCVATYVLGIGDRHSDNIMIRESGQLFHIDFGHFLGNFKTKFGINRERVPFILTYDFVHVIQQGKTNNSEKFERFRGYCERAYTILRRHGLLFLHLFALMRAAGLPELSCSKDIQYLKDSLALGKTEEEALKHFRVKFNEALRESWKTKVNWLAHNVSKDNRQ
row,SMILES,IC50 [nM]
1,c1cc(-c2nc(N3CCOCC3)c3cc(CN4CC5CNCC5C4)ccc3n2)c2cc[nH]c2c1 (configuration not stated),< 500
2,OCCN1CCN(Cc2ccc3nc(-c4cccc5[nH]ccc45)nc(N4CCOCC4)c3c2)CC1,< 500
3,C[C@@H]1CN(Cc2ccc3nc(-c4cccc5[nH]ccc45)nc(N4CCOCC4)c3c2)C[C@H](C)N1,< 500
4,c1cc(-c2nc(N3CCOCC3)c3cc(CN4CC5CCC(C4)N5)ccc3n2)c2cc[nH]c2c1,< 500
5,Fc1cc(-c2nc(N3CCOCC3)c3cc(CN4CCC(N5CCOCC5)CC4)ccc3n2)c2cc[nH]c2c1,< 500
6,c1cc(-c2nc(N3CCOCC3)c3cc(CN4CCN5CCC[C@H]5C4)ccc3n2)c2cc[nH]c2c1,< 500

# More lines, now with the values ahead:
row,IC50 [nM],SMILES
1,< 500,c1cc(-c2nc(N3CCOCC3)c3cc(CN4CC5(CCNCC5)C4)ccc3n2)c2cc[nH]c2c1
2,< 500,Fc1ccc2[nH]ccc2c1-c1nc(N2CCOCC2)c2cc(CN3C[C@@H]4C[C@H]3CN4)ccc2n1
3,< 500,CN1CCC(N(C)Cc2ccc3nc(-c4cc(F)cc5[nH]ccc45)nc(N4CCOCC4)c3c2)CC1
4,< 500,c1cc(-c2nc(N3CCOCC3)c3cc(CN4CCC(N5CCOCC5)CC4)ccc3n2)c2cc[nH]c2c1
5,< 500,CN1CCC(N(C)Cc2ccc3nc(-c4cccc5[nH]ccc45)nc(N4CCOCC4)c3c2)CC1
6,< 500,CN1CCN(Cc2ccc3nc(-c4cccc5[nH]ccc45)nc(N4CCOCC4)c3c2)CC1
